Measurements published in patent publication US10792257B2, “Pharmaceutical compositions comprising safinamide” (Zambon S.P.A., priority 2016, dated 2020).

Assays:
[1] = Organoleptic characteristics of the active ingredient as noted by the inventors; settings: for irritation of the mucosae: unmasked active ingredient, oropharynx
Solubility in saliva = type: physicochemical

Row | Compound | irritant effect in the oral cavity ([1]; attempts to modify the pH of the pharmaceutical preparation) | irritation of the mucosae [1] | solubility in saliva (Solubility in saliva)
1 | C[C@H](NCc1ccc(OCc2cccc(F)c2)cc1)C(N)=O [safinamide methanesulfonate, Safinamide methanesulfonate] | did not lead to a reduction of the irritant effect | pronounced tendency to irritate the mucosae of the first section of the oropharynx | fairly soluble in saliva
2 | (2 S)-2-[[4-[(3-fluorophenypmethoxy]phenyl]methyl amino]propanamide [safinamide] |  | pronounced tendency to irritate the mucosae of the first section of the oropharynx | 
